In one assay the test system is Staphylococcus aureus. Put plainly: Antimicrobial activity against Staphylococcus aureus ATCC 6538 after 18 hrs by twofold serial broth dilution method. It is filed as functional. The conditions noted are these: ATCC 6538, 18 h. A general note: Broth dilution looks for growth in wells or tubes with falling amounts of substance.
For assay [1], the system named is Staphylococcus epidermidis. Briefly: Antimicrobial activity against Staphylococcus epidermidis ATCC 12228 after 18 hrs by twofold serial broth dilution method. The format is functional. The conditions noted are these: ATCC 12228, 18 h.
Assay [2] relates to Staphylococcus epidermidis. Put plainly: Bactericidal activity against Staphylococcus epidermidis ATCC 12228 after 24 hrs. The format is functional. Conditions: ATCC 12228, 24 h, read-out: MBC99.9.
For assay [3], the system named is Escherichia coli. Briefly: Bactericidal activity against Escherichia coli ATCC 25922 after 24 hrs. It is filed as functional. The conditions noted are these: ATCC 25922, 24 h, read-out: MBC99.9.
The subject of assay [4] is Escherichia coli. Put plainly: Bactericidal activity against Escherichia coli NCTC 8196 after 24 hrs. It is filed as functional. Conditions: NCTC 8196, 24 h, read-out: MBC99.9.
Assay [5] concerns Staphylococcus epidermidis. Briefly: Antimicrobial activity against methicillin-resistant Staphylococcus epidermidis isolate 403/10 after 18 hrs by twofold serial broth dilution method. The format is functional. The conditions noted are these: isolate 403/10, 18 h.
Assay [6] deals with Staphylococcus epidermidis. Briefly: Antimicrobial activity against methicillin-resistant Staphylococcus epidermidis isolate 404/10 after 18 hrs by twofold serial broth dilution method. It is filed as functional. Conditions: isolate 404/10, 18 h.
Assay [7] deals with Staphylococcus epidermidis. Briefly: Antimicrobial activity against methicillin-resistant Staphylococcus epidermidis isolate 405/10 after 18 hrs by twofold serial broth dilution method. The format is functional. Conditions: isolate 405/10, 18 h.
Assay [8] deals with Staphylococcus epidermidis. Put plainly: Antimicrobial activity against methicillin-resistant Staphylococcus epidermidis isolate 461/11 after 18 hrs by twofold serial broth dilution method. Conditions: isolate 461/11, 18 h. The format is functional.
The test system of assay [9] is Staphylococcus epidermidis. Briefly: Antimicrobial activity against methicillin-resistant Staphylococcus epidermidis isolate 470/11 after 18 hrs by twofold serial broth dilution method. The format is functional. Conditions: isolate 470/11, 18 h.
The test system of assay [10] is Staphylococcus epidermidis. Briefly: Bactericidal activity against methicillin-resistant Staphylococcus epidermidis isolate 404/10 after 24 hrs. The conditions noted are these: isolate 404/10, 24 h, read-out: MBC99.9. The format is functional.
The subject of assay [11] is Staphylococcus epidermidis. Briefly: Bactericidal activity against methicillin-resistant Staphylococcus epidermidis isolate 405/10 after 24 hrs. The conditions noted are these: isolate 405/10, 24 h, read-out: MBC99.9. The format is functional.
The subject of assay [12] is Staphylococcus epidermidis. Put plainly: Bactericidal activity against methicillin-resistant Staphylococcus epidermidis isolate 422/10 after 24 hrs. The format is functional. Conditions: isolate 422/10, 24 h, read-out: MBC99.9.
The subject of assay [13] is Staphylococcus epidermidis. Put plainly: Bactericidal activity against methicillin-resistant Staphylococcus epidermidis isolate 461/11 after 24 hrs. The format is functional. Conditions: isolate 461/11, 24 h, read-out: MBC99.9.
Assay [14] concerns Staphylococcus epidermidis. Briefly: Bactericidal activity against methicillin-resistant Staphylococcus epidermidis isolate 469/11 after 24 hrs. The format is functional. Conditions: isolate 469/11, 24 h, read-out: MBC99.9.
Assay [15] deals with Staphylococcus epidermidis. Briefly: Inhibition of Staphylococcus epidermidis ATCC 35984 biofilm formation at 1 to 32 ug/ml after 24 hrs by MTT assay. It is filed as functional, organism-based. On the technique in general: Formazan colour is commonly taken as a measure of viable cells.
Assay [16] relates to Staphylococcus epidermidis. Briefly: Inhibition of Staphylococcus epidermidis ATCC 12228 biofilm formation at 1 to 32 ug/ml after 24 hrs by MTT assay. The format is functional, organism-based.
The test system of assay [17] is Staphylococcus epidermidis. Briefly: Inhibition of Staphylococcus epidermidis isolate 407/10 biofilm formation at 1 to 32 ug/ml after 24 hrs by MTT assay. The format is functional, organism-based.
The subject of assay [18] is Staphylococcus epidermidis. Briefly: Inhibition of Staphylococcus epidermidis isolate 409/10 biofilm formation at 1 to 32 ug/ml after 24 hrs by MTT assay. It is filed as functional, organism-based.
The test system of assay [19] is Staphylococcus epidermidis. Briefly: Inhibition of Staphylococcus epidermidis isolate 461/11 biofilm formation at 1 to 32 ug/ml after 24 hrs by MTT assay. It is filed as functional, organism-based.
Assay [20] relates to Staphylococcus epidermidis. Briefly: Inhibition of Staphylococcus epidermidis isolate 469/11 biofilm formation at 1 to 32 ug/ml after 24 hrs by MTT assay. It is filed as functional, organism-based.

Values after ≈ are worked out from the molar mass of the structure shown. Active and inactive are the calls of the source. A value given as a limit tells only on which side of the number the result lay.

Consider `O=C(O)c1cn(C2CC2)c2cc(N3CCNCC3)c(F)cc2c1=O` [CIPROFLOXACIN], for which the MIC is 0.25 µg/mL (≈ 0.754 µM) against Staphylococcus aureus; 0.25 µg/mL (≈ 0.754 µM) in assay [1]; 8 µg/mL (≈ 24.1 µM) in assay [5]; 32 µg/mL (≈ 96.6 µM) in assay [6]; 2 µg/mL (≈ 6.04 µM) in assay [7]; 0.25 µg/mL (≈ 0.754 µM) in [8]. In assay [9], this molecule displayed an MIC of 0.125 µg/mL (≈ 0.377 µM). Moreover, the MBC in [2] is 1 µg/mL (≈ 3.02 µM); in the assay on Escherichia coli [3], 0.0016 µg/mL (≈ 0.00483 µM); in the assay with Escherichia coli [4] it was 0.0016 µg/mL (≈ 0.00483 µM); in assay [10] it was above 256 µg/mL; in assay [11] it was 128 µg/mL (≈ 386 µM); in assay [12], 64 µg/mL (≈ 193 µM). Moreover, the figures for the MBC in assay [13] and in assay [14] were 1 µg/mL (≈ 3.02 µM) and 128 µg/mL (≈ 386 µM), respectively. For the same molecule, the inhibition result in assay [15], in assay [16], in assay [17], in assay [18], in assay [19] and in [20] was “Active” throughout.

In general, MIC refers to the smallest concentration in the dilution series that meets the test's criterion for growth inhibition. A high value points to a need for much substance.
